# Patent US20220220100A1 (SOLUTIA CANADA INC., priority 2019, published 2022)
# Assay: Photostability: xenon arc weathering of chromophore solutions, LCMS analysis
# Format: physicochemical
# Details: for Ketone (%) / Minus-2HF (%) / Minus-HF (%) / Sulfone (%) / Chromophore Remaining (%): xenon arc, 82° C. bp; for Ketone (%) / Minus-2HF (%) / Minus-HF (%) / Sulfone (%): linearly interpolated to 0.5 MJ/m2 @ 340 nm; for Chromophore Remaining (%): linearly interpolated to 0.5 MJ/m2 @ 340 nm of exposure energy; for Photostability (in words): weathering experiments
# Source text: Photostability (resistance to light-induced degradation) may be measured by the amount of time required for the compound, or a material comprising the compound, to degrade to a certain point under light exposure. The light exposure may be constant, or cyclic. The light transmittance or absorbance of the compound, or material comprising the compound, may be determined at both a light state and dark state prior to testing, to determine a contrast ratio. During testing, the contrast ratio may be monitored (periodically or continually), the compound or material may be determined to have failed when the contrast ratio falls outside, or below, a selected range, or when the contrast ratio decreases to a percentage of the original contrast ratio. Photostability may also be expressed with reference to a light source or with reference to a type of light.
# Chromophore solutions in Rhodiasolv IRIS were prepared at 1 to 10 wt % loading. Solutions were prepared in a glovebox by charging the chromophore and Rhodiasolv IRIS to a trace-clean vial, and the solution was stirred on a hotplate at 90° C. for 2-24 hours. After cooling, the chromophore solution was injected into glass weathering cells and the fill and vent ports were sealed with a thin disc of Kalrez (FFKM Perfluorinated Elastomer) and secured with a clamp and set-screw. The weathering cells were filled and sealed inside the glove box.
# Measurement of Photostability
# A. Fabrication of cuvettes. Two holes of 0.8 mm diameter were drilled at opposite ends in a 75×50 mm piece of float glass using a diamond drill bit in a rotary tool. The drilled glass and a matching piece of undrilled glass were then cleaned using hot soapy water, rinsed with deionized water and acetone and then dried with compressed air. A 5 mm wide frame was cut from a sheet of 50 μm thickness EVAL EF-F using a laser engraver. The EVAL frame was placed around the perimeter of one sheet of glass and sandwiched by the second sheet of glass. The glass-EVAL-glass sandwich was secured with tape and heated under vacuum (10 mmHg) for 30 minutes at 170° C. in a vacuum bag. After cooling, a third piece of float glass was PVB laminated to the non-drilled side of the sealed glass cells using Trosifol UV Extra Protect B150 PVB (400 nm UV cut-off).
# B. Xenon arc weathering protocol. Devices were exposed to simulated weathering conditions inside a Xe-3-HS xenon arc chamber, manufactured by Q-labs Inc. The samples were weathered according to the following table. The devices were exposed to these conditions continuously, with no dark or spray cycles included.
# C. Analysis of weathered chromophore solutions by LCMS. The set-screws, metal clamps and Kalrez plugs were removed from the cuvette to expose the fill port. A 5 mL plastic syringe (NORM-JECT®) equipped with a tip (Precision Tips, 0.010″ RED) was inserted into one fill port and the chromophore solution was withdrawn from the cuvette. The chromophore solution was then injected into a 2 mL amber vial (part number 5182-0716, Agilent Technology) prefilled with 1.5 mL LC-MS grade acetonitrile (HiPerSolbe CHROMANORM Acetonitrile, VWR BDH Chemicals). An aliquot of the acetonitrile solution (2 μL) was injected into the LC-MS system (Agilent Infinity 1290 LC-MS system with diode array detector) through an autosampler mechanism. Species in the injected sample were separated through a reverse phase column (Zorbax SB-C18, 2.1×50 mm, 1.8 μm, operated at 40° C.), using a mixture of acetonitrile (mixed with 1% formic acid v/v ratio), methanol (HiPerSolbe CHROMANORM Methanol, VWR BDH Chemicals) and water (HiPerSolbe CHROMANORM Water, VWR BDH Chemicals) as mobile phase.
# [1] = 3 wt %, interpolated to 0.5 MJ/m^2 of energy exposure at 340 nm
# [2] = 1 wt %, interpolated to 0.5 MJ/m^2 of energy exposure at 340 nm
# [3] = 10 wt %, interpolated to 0.5 MJ/m^2 of energy exposure at 340 nm
Compound,Ketone (%) (3 wt % in Rhodiasolv IRIS),Minus-2HF (%) (3 wt % in Rhodiasolv IRIS),Minus-HF (%) (3 wt % in Rhodiasolv IRIS),Sulfone (%) (3 wt % in Rhodiasolv IRIS),Chromophore Remaining (%) (3 wt % in Rhodiasolv IRIS),Ratio of chromophore remaining relative to S340 [1],Photostability (in words),Ketone (%) (10 wt % in Rhodiasolv IRIS),Minus-2HF (%) (10 wt % in Rhodiasolv IRIS),Minus-HF (%) (10 wt % in Rhodiasolv IRIS),Sulfone (%) (10 wt % in Rhodiasolv IRIS),Chromophore Remaining (%) (10 wt % in Rhodiasolv IRIS),Ratio of chromophore remaining relative to S340 [3],further results
COc1ccc2c(C3=C(c4cc(-c5ccc(C(C)(C)C)s5)sc4-c4ccc(C(C)(C)C)s4)C(F)(F)C(F)(F)C3(F)F)c(-c3ccc(C(C)(C)C)cc3)oc2c1,0.0%,1.9%,6.9%,0.0%,86.9%,0.95,more rapid degradation compared to S340,–,–,–,–,–,–,–
COc1cc2oc(-c3ccc(C(C)(C)C)cc3)c(C3=C(c4cc(-c5cc6c(s5)C(C)(C)CCC6(C)C)sc4-c4cc5c(s4)C(C)(C)CCC5(C)C)C(F)(F)C(F)(F)C3(F)F)c2cc1OC,–,–,–,–,–,–,high photostability,–,–,–,–,–,–,Ketone (%) (1 wt % in Rhodiasolv IRIS): 3.3%; Minus-2HF (%) (1 wt % in Rhodiasolv IRIS): 0.0%; Minus-HF (%) (1 wt % in Rhodiasolv IRIS): 1.3%; Sulfone (%) (1 wt % in Rhodiasolv IRIS): 3.1%; Chromophore Remaining (%) (1 wt % in Rhodiasolv IRIS): 92.3%; Ratio of chromophore remaining relative to S340 [2]: 1.01; Sum of degradation product percentages relative to the sum of degradation product percentages for S340 [2]: 0.87
COCCCOc1cc2oc(-c3ccc(C(C)(C)C)cc3)c(C3=C(c4cc(-c5cc(C(C)(C)C)cs5)sc4-c4cc(C(C)(C)C)cs4)C(F)(F)C(F)(F)C3(F)F)c2cc1OCCCOC,–,–,–,–,–,–,high photostability,0.0%,0.0%,0.0%,0.1%,98.6%,1.08,Formation of the Minus-HF degradation product (in words): prevents the Minus-HF product
CC(C)(C)c1ccc(-c2oc3cc(OCCN4C(=O)CCC4=O)c(OCCN4C(=O)CCC4=O)cc3c2C2=C(c3cc(-c4cc(C(C)(C)C)cs4)sc3-c3cc(C(C)(C)C)cs3)C(F)(F)C(F)(F)C2(F)F)cc1,–,–,–,–,–,–,high photostability,0.0%,0.0%,0.0%,0.0%,95.3%,1.05,–
"COc1cc2oc(-c3ccc(C(C)(C)C)cc3)c(C3=C(c4cc(-c5ccc(C(C)(C)C)s5)sc4-c4ccc(C(C)(C)C)s4)C(F)(F)C(F)(F)C3(F)F)c2cc1OC [Chromophore S340, 2-(4-(tert-butyl)phenyl)-3-(2-(5,5″-di-tert-butyl-[2,2′:5′,2″-terthiophen]-3′-yl)-3,3,4,4,5,5-hexafluorocyclopent-1-en-1-yl)-5,6-dimethoxybenzofuran]",0.0%,1.0%,3.5%,0.0%,91.1%,1.00,acceptable photostability,–,–,–,–,–,–,–
"CC(C)(C)c1ccc(-c2oc3ccccc3c2C2=C(c3cc(-c4ccc(C(C)(C)C)s4)sc3-c3ccc(C(C)(C)C)s3)C(F)(F)C(F)(F)C2(F)F)cc1 [Chromophore S343, 2-(4-(tert-butyl)phenyl)-3-(2-(5,5″-di-tert-butyl-[2,2′:5′,2″-terthiophen]-3′-yl)-3,3,4,4,5,5-hexafluorocyclopent-1-en-1-yl)benzofuran]",0.0%,3.1%,0.0%,0.0%,85.2%,0.93,more rapid degradation compared to S340,–,–,–,–,–,–,–
"COc1ccc2oc(-c3ccc(C(C)(C)C)cc3)c(C3=C(c4cc(-c5ccc(C(C)(C)C)s5)sc4-c4ccc(C(C)(C)C)s4)C(F)(F)C(F)(F)C3(F)F)c2c1 [Chromophore S344, 2-(4-(tert-butyl)phenyl)-3-(2-(5,5″-di-tert-butyl-[2,2′:5′,2″-terthiophen]-3′-yl)-3,3,4,4,5,5-hexafluorocyclopent-1-en-1-yl)-5-methoxybenzofuran]",0.0%,8.0%,25.7%,0.0%,65.1%,0.71,more rapid degradation compared to S340,–,–,–,–,–,–,–
"COCCOc1cc2oc(-c3ccc(C(C)(C)C)cc3)c(C3=C(c4cc(-c5ccc(C(C)(C)C)s5)sc4-c4ccc(C(C)(C)C)s4)C(F)(F)C(F)(F)C3(F)F)c2cc1OCCOC [Chromophore S364, 2-(4-(tert-butyl)phenyl)-3-(2-(5,5″-di-tert-butyl-[2,2′:5′,2″-terthiophen]-3′-yl)-3,3,4,4,5,5-hexafluorocyclopent-1-en-1-yl)-5,6-bis(2-methoxyethoxy)benzofuran]",–,–,–,–,–,–,decreased stability,0.6%,2.7%,14.9%,0.0%,80.4%,0.88,–
"CC(=O)Oc1cc2oc(-c3ccc(C(C)(C)C)cc3)c(C3=C(c4cc(-c5ccc(C(C)(C)C)s5)sc4-c4ccc(C(C)(C)C)s4)C(F)(F)C(F)(F)C3(F)F)c2cc1OC(C)=O [Chromophore S367, 2-(4-(tert-butyl)phenyl)-3-(2-(5,5″-di-tert-butyl-[2,2′:5′,2″-terthiophen]-3′-yl)-3,3,4,4,5,5-hexafluorocyclopent-1-en-1-yl)benzofuran-5,6-diyl diacetate]",–,–,–,–,–,–,more rapid degradation compared to S340,1.1%,0.0%,56.0%,0.0%,40.8%,0.45,–
"CCOC(=O)CCCOc1cc2oc(-c3ccc(C(C)(C)C)cc3)c(C3=C(c4cc(-c5ccc(C(C)(C)C)s5)sc4-c4ccc(C(C)(C)C)s4)C(F)(F)C(F)(F)C3(F)F)c2cc1OCCCC(=O)OCC [Chromophore S374, diethyl 4,4′-((2-(4-(tert-butyl)phenyl)-3-(2-(5,5″-di-tert-butyl-[2,2′:5′,2″-terthiophen]-3′-yl)-3,3,4,4,5,5-hexafluorocyclopent-1-en-1-yl)benzofuran-5,6-diyl)bis(oxy))dibutanoate]",–,–,–,–,–,–,decreased stability,0.0%,0.0%,26.5%,0.0%,72.4%,0.79,–
"COc1cc2oc(-c3ccc(C(C)(C)C)cc3)c(C3=C(c4cc(-c5cc(C(C)(C)C)cs5)sc4-c4cc(C(C)(C)C)cs4)C(F)(F)C(F)(F)C3(F)F)c2cc1OC [Chromophore S377, 2-(4-(tert-butyl)phenyl)-3-(2-(4,4″-di-tert-butyl-[2,2′:5′,2″-terthiophen]-3′-yl)-3,3,4,4,5,5-hexafluorocyclopent-1-en-1-yl)-5,6-dimethoxybenzofuran]",–,–,–,–,–,–,high photostability,–,–,–,–,–,–,"Ketone (%) (5 wt % in Rhodiasolv IRIS): 0.0%; Minus-2HF (%) (5 wt % in Rhodiasolv IRIS): 0.0%; Minus-HF (%) (5 wt % in Rhodiasolv IRIS): 0.0%; Sulfone (%) (5 wt % in Rhodiasolv IRIS): 0.0%; Chromophore Remaining (%) (5 wt % in Rhodiasolv IRIS): 100.0%; Ratio of chromophore remaining relative to S340 (5 wt %, interpolated to 0.5 MJ/m^2 of energy exposure at 340 nm): 1.10"
